From US7625895B2, “Diphenyl-dihydro-imidazopyridinones” (Hoffmann-Le Roche Inc., priority 2007, dated 2009) come the findings set out here.

What is called IC50 is the concentration at which inhibition is half-maximal.

The assay deals with interaction between p53 and MDM2 proteins (recombinant GST-tagged MDM2 / p53-peptide) (Homo sapiens, UniProt Q00987). Briefly: HTRF assay of inhibition of the p53-MDM2 interaction (GST-MDM2 binding to biotinylated p53 peptide). As to conditions: 90 nM biotinylated p53 peptide, 160 ng/ml GST-MDM2, 37° C. 1 h. The protocol: The ability of the compounds to inhibit the interaction between p53 and MDM2 proteins was measured by an HTRF (homogeneous time-resolved fluorescence) assay in which recombinant GST-tagged MDM2 binds to a peptide that resembles the MDM2-interacting region of p53 (Lane et al.). Binding of GST-MDM2 protein and p53-peptide (biotinylated on its N-terminal end) is registered by the FRET (fluorescence resonance energy transfer) between Europium (Eu)-labeled anti-GST antibody and streptavidin-conjugated Allophycocyanin (APC).
interaction between p53 and MDM2 proteins (recombinant GST-tagged MDM2 / p53-peptide), sequence (Q00987 whole entry): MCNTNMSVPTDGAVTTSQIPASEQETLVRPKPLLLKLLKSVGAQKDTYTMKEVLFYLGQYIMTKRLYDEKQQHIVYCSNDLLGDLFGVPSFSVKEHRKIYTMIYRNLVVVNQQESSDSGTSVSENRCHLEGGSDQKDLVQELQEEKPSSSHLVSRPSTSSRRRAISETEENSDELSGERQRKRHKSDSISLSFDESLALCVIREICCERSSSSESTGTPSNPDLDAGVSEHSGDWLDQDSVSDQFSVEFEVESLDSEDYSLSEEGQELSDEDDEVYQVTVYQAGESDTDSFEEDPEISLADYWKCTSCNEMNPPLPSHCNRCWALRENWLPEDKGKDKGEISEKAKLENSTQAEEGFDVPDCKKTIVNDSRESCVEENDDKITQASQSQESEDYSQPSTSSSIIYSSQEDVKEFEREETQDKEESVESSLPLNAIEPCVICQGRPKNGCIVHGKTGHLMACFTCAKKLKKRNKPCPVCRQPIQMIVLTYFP
Test is performed in black flat-bottom 384-well plates (Costar) in a total volume of […] containing: 90 nM biotinylated peptide, 160 ng/ml GST-MDM2, 20 nM streptavidin-APC (PerkinElmerWallac), 2 nM Eu-labeled anti-GST-antibody (PerkinElmerWallac) 0.2% bovine serum albumin (BSA), 1 mM dithiothreitol (DTT) and 20 mM […] (TBS) buffer as follows: Add 10 μL of GST-MDM2 (640 ng/ml working solution) in reaction buffer to each well. Add 10 μL diluted compounds (1:5 dilution in reaction buffer) to each well mix by shaking. Add 20 μL biotinylated p53 peptide (180 nM working solution) in reaction buffer to each well and mix on shaker. Incubate at 37° C. for 1 h. Add 20 μL streptavidin-APC and Eu-anti-GST antibody mixture (6 nM Eu-anti-GST and 60 nM streptavidin-APC working solution) in TBS buffer with 0.2% BSA, shake at room temperature for 30 minutes and read using a TRF-capable plate reader at 665 and 615 nm (Victor 5, Perkin ElmerWallac). If not specified, the reagents were purchased from Sigma Chemical Co.
With `N#Cc1cc(S(=O)(=O)N2c3cccc(=O)n3[C@@H](c3ccc(Cl)cc3)[C@H]2c2ccc(Cl)cc2)ccc1F` (single isomer, unassigned) [Example 85, 5-[(2R*,3S*)-2,3-Bis-(4-chloro-phenyl)-5-oxo-2,3-dihydro-5H-imidazo[1,2-a]pyridine-1-sulfonyl]-2-fluoro-benzonitrile], the IC50 was found to be 0.22 µM.

In the case of `O=C(CN1CCN(C(=O)c2ccc3n(c2=O)[C@@H](c2ccc(Cl)cc2)[C@@H](c2ccc(Cl)cc2)N3S(=O)(=O)c2ccccc2F)CC1)N1CCOCC1` (racemic) [Example 51, rac-cis-2,3-Bis-(4-chloro-phenyl)-1-(2-fluoro-benzenesulfonyl)-6-[4-(2-morpholin-4-yl-2-oxo-ethyl)-piperazine-1-carbonyl]-2,3-dihydro-1H-imidazo[1,2-a]pyridin-5-one], the IC50 is 0.71 µM. Regarding `N#Cc1cc(S(=O)(=O)N2c3cccc(=O)n3[C@@H](c3ccc(Cl)cc3)[C@H]2c2ccc(Cl)cc2)ccc1F` (single isomer, unassigned) [Example 84, 5-[(2R*,3S*)-2,3-Bis-(4-chloro-phenyl)-5-oxo-2,3-dihydro-5H-imidazo[1,2-a]pyridine-1-sulfonyl]-2-fluoro-benzonitrile], the concentration for half-maximal inhibition (IC50) worked out at 0.5 µM. Under `O=C(O)c1cccc(S(=O)(=O)N2c3cccc(=O)n3[C@@H](c3ccc(Cl)cc3)[C@H]2c2ccc(Cl)cc2)c1` (racemic) [Example 82, rac-3-[cis-2,3-Bis-(4-chloro-phenyl)-5-oxo-2,3-dihydro-5H-imidazo[1,2-a]pyridine-1-sulfonyl]-benzoic acid] stands 0.77 µM; under `COC(=O)c1cccc(S(=O)(=O)N2c3ccc(C(=O)N4CCN(CC(=O)N5CCOCC5)CC4)c(=O)n3[C@@H](c3ccc(Cl)cc3)[C@H]2c2ccc(Cl)cc2)c1` (racemic) [Example 62, rac-3-{cis-2,3-Bis-(4-chloro-phenyl)-6-[4-(2-morpholin-4-yl-2-oxo-ethyl)-piperazine-1-carbonyl]-5-oxo-2,3-dihydro-5H-imidazo[1,2-a]pyridine-1-sulfonyl}-benzoic acid methyl ester], 0.47 µM. In the case of `COC(=O)c1cccc(S(=O)(=O)N2c3ccc(C(=O)N4CCN(CCn5ccnc5)CC4)c(=O)n3[C@@H](c3ccc(Cl)cc3)[C@H]2c2ccc(Cl)cc2)c1` (racemic) [Example 66, rac-3-{cis-2,3-Bis-(4-chloro-phenyl)-6-[4-(2-imidazol-1-yl-ethyl)-piperazine-1-carbonyl]-5-oxo-2,3-dihydro-5H-imidazo[1,2-a]pyridine-1-sulfonyl}-benzoic acid methyl ester], the IC50 came to 0.67 µM. On to `O=c1cccc2n1[C@@H](c1ccc(Cl)cc1)[C@@H](c1ccc(Cl)cc1)N2S(=O)(=O)c1ccsc1` (racemic) [Example 10, rac-cis-2,3-Bis-(4-chloro-phenyl)-1-(thiophene-3-sulfonyl)-2,3-dihydro-1H-imidazo[1,2-a]pyridin-5-one], for which the IC50 came out at 0.71 µM.

Take `N#Cc1cccc(S(=O)(=O)N2c3ccc(C(=O)N4CCOCC4)c(=O)n3[C@H](c3ccc(Cl)cc3)[C@@H]2c2ccc(Cl)cc2)c1` (single isomer, unassigned) [Example 92, 3-[2R*,3S*-bis-(4-chloro-phenyl)-6-morpholine-4-carbonyl)-5-oxo-2,3-dihydro-5H-imidazo[1,2-a]pyridine-1-sulfonyl]-benzonitrile]: the IC50 is 0.69 µM. Take `N#Cc1cccc(S(=O)(=O)N2c3ccc(C(=O)N4CCOCC4)c(=O)n3[C@@H](c3ccc(Cl)cc3)[C@H]2c2ccc(Cl)cc2)c1` (single isomer, unassigned) [Example 91, 3-[2R*,3S*-bis-(4-chloro-phenyl)-6-(morpholine-4-carbonyl)-5-oxo-2,3-dihydro-5H-imidazo[1,2-a]pyridine-1-sulfonyl]-benzonitrile]: the IC50 came to 1.6 µM. Regarding `COC(=O)c1cccc(S(=O)(=O)N2c3ccc(C(=O)N4CCN(C)CC4)c(=O)n3[C@@H](c3ccc(Cl)cc3)[C@H]2c2ccc(Cl)cc2)c1` (racemic) [Example 63, rac-3-[cis-2,3-Bis-(4-chloro-phenyl)-6-(4-methyl-piperazine-1-carbonyl)-5-oxo-2,3-dihydro-5H-imidazo[1,2-a]pyridine-1-sulfonyl]-benzoic acid methyl ester], the IC50 stood at 0.46 µM.
